# Earlier results, collected in patent publication US20080287669A1, “METHODS AND COMPOSITIONS FOR IDENTIFYING COMPOUNDS USEFUL IN NUCLEIC ACID PURIFICATION” (priority 2007, published 2008).
# Where a name gives a salt, the structure may show the parent alone.
# Details: not given
row,Compound,Dielectric Constant (DC)
1,C[S+](C)[O-] [dimethylsulfoxide],38
2,NC=O [formamide],111
3,O=C(O)C(Cl)(Cl)Cl [trichloroacetic acid],4.6

# Same assay, conditions: Table 1, soluble organic solvents
row,Compound,Dielectric Constant (DC)
1,"OCCCCCO [1,5-pentanediol]",26.2
2,Brc1cccc2ccccc12 [1-bromonaphthalene],4.77
3,"Cc1ccc(C)c(O)c1 [2,5-xylenol]",5.36
4,CC1CCCO1 (stereo not shown) [2-methyl-tetrahydrofuran],6.97
5,"Cc1cc(C)cc(O)c1 [3,5-xylenol]",9.06
6,OCc1ccccc1 [benzyl alcohol],11.92
7,CCCC=O [butanal],13.45
8,S=C=S [carbon disulfide],2.63
9,O=C1CCCCC1 [cyclohexanone],16.1
10,NC1CCCCC1 [cyclohexylamine],4.55
11,CCCCNCCCC [dibutylamine],2.77
12,FC(F)(Cl)Cl [dichlorodifluoromethane],3.5
13,COC [dimethylether],6.18
14,CCCNCCC [dipropylamine],3.07
15,CCOC(C)=O [ethyl acetate],6.08
16,CCOC=O [ethyl formate],8.57
17,O=Cc1ccco1 [furfural],42.1
18,CC(=O)C=C(C)C [mesityl oxide],15.6
19,C[N+](=O)[O-] [nitromethane],37.27
20,Cc1ccccc1O [o-cresol],6.76
21,CCCCC(=O)O [pentanoic acid],2.66
22,CCC=O [propanal],18.5
23,CCOP(=O)(OCC)OCC [triethyl phosphate],13.2

# Same assay, conditions: Table 2, very soluble organic solvents
row,Compound,Dielectric Constant (DC)
1,"OCCCCC(O)CO (stereo not shown) [1,2,6-hexanetriol]",31.5
2,"Cc1ccnc(C)c1 [2,4-lutidine]",9.6
3,CCCC(C)O (stereo not shown) [2-pentanol],13.71
4,Cc1ccccn1 [2-picoline],10.18
5,CN1CCCC1=O [N-methyl-2-pyrrolidone],32.2
6,CC(N)=O [acetamide],67.6
7,CC(=O)OC(C)=O [acetic anhydride],22.45
8,FC(F)Cl [chlorodifluoromethane],6.11
9,CCOCCOCCOCC [diethylene glycol diethyl ether],5.7
10,CCC(=O)CC [diethylketone],17
11,CCOC(=O)CC(C)=O [ethylacetoacetate],14
12,CCOCCOC(C)=O [ethylene glycol ethylether acetate],7.57
13,COCCOC(C)=O [ethylene glycol monomethylether acetate],8.25
14,CCCCCC(C)=O [methyl pentyl ketone],11.95
15,COC(C)=O [methylacetate],7.07
16,CC1COC(=O)O1 (stereo not shown) [propylene carbonate],66.14
17,CN(C)C [trimethylamine],2.44

# Same assay, conditions: Table 3, miscible organic solvents
row,Compound,Dielectric Constant (DC)
1,"CC(O)CO (stereo not shown) [1,2-propanediol]",27.5
2,"CC(O)CCO (stereo not shown) [1,3-butanediol]",28.8
3,"OCCCO [1,3-propanediol]",35.1
4,"Cc1cccc(C)n1 [2,6-lutidine]",7.33
5,CC(C)O [2-propanol],20.18
6,Cc1cccnc1 [3-picoline],11.1
7,Cc1ccncc1 [4-picoline],12.2
8,CC=O [acetaldehyde],21
9,CC(=O)O [acetic acid],6.2
10,C=CCO [allyl alcohol],19.7
11,CCCC(=O)O [butanoic acid],2.98
12,CCCCN [butylamine],4.71
13,CC(=O)CC(C)(C)O [diacetone alcohol],18.2
14,NCCNCCN [diethylenetriamine],12.62
15,C[S+](C)[O-] [dimethylsulfoxide],47.24
16,"CCO [ethanol, reference compound]",25.3
17,NCCO [ethanolamine],31.94
18,CCN [ethylamine],8.7
19,CCCCOCCO [ethyleneglycol monobutyl ether],9.3
20,OCc1ccco1 [furfuryl alcohol],16.85
21,OCC(O)CO [glycerol],46.53
22,CC(C)CN [isobutylamine],4.43
23,C1COCCN1 [morpholine],7.42
24,CCCCCN [pentylamine],4.27
25,CCC(=O)O [propanoic acid],3.44
26,C1CCNC1 [pyrrolidine],8.3
27,O=S1(=O)CCCC1 [sulfolane],43.26
28,C1CCOC1 [tetrahydrofuran],7.52
29,OCCOCCOCCO [triethyleneglycol],23.69

# Same assay, conditions: Table 4, exemplary solvents
row,Compound,Dielectric Constant
1,C[S+](C)[O-] [dimethylsulfoxide],47.2
2,"CCO [ethanol, reference compound]",25.3
3,O=S1(=O)CCCC1 [sulfolane],43.26
4,C1CCOC1 [tetrahydrofuran],7.52
